Reference: patent US10533029B1, “Anticancer trans-diaminoplatinum(II) complexes of selenones” (KING FAHD UNIVERSITY OF PETROLEUM AND MINERALS, priority 2018, dated 2020)

Assays:
[1] = test system: human cervical cancer HeLa cells; test: MTT in vitro cytotoxicity, HeLa; format: cell-based; conditions: for IC50: HeLa, 72 h incubation, read-out: IC50 values against HeLa; for cytotoxicity compared to cisplatin: HeLa cells
Procedure: (§1) Solutions of Pt(II) complexes of selenone 1-7 and cisplatin at concentrations of 1.0 μM, 5.0 μM, 10.0 μM, 25.0 μM, and 50.0 μM were prepared in Dulbecco modified eagle medium (DMEM). The human cervical cancer cell line HeLa and human breast cancer cell line MDA-231 were seeded and maintained in quadruplicate in a 96-well tissue culture plate at 5×10^4 cells per well in 200 μL of the same medium. The cancer cells were incubated for 24 hours before treatment. All compounds were dissolved in 50% DMSO. Therefore DMSO was used as a negative control. The final DMSO concentration, in each well, was less than 0.1%. The cancer cells were treated with platinum complexes of compounds 1-7 and cisplatin, and the resulting cultures were incubated for 72 h. The medium of wells was discarded and 100 μL DMEM containing (5 mg/mL) MTT (3-(4,5-dimethylthiazol-2-yl)-2,5-diphenyltetrazolium bromide) was added to each well and the cultures incubated in a CO2 incubator at 37° C. in the dark for 4 hrs. After incubation, a purple colored formazan (artificial chromogenic dye, a product of the reduction of water […] tetrazolium salts e.g., MTT by dehydrogenases and reductases) in the cells is produced and appeared as dark crystals in the bottom of the wells. The medium of culture was discarded from each well carefully to avoid disruption of the monolayer. Isopropanol (100 μL) was added in each well. The solution was thoroughly mixed in the wells to dissolve the formazan crystals which results in a purple solution. The absorbance of the 96-well plate was measured at 570 nm with Mithras 2LB943 multimode microplate reader against reagent blank.
(§2) In vitro cytotoxicity of the platinum complexes of compounds 1-7 and cisplatin it DMSO were evaluated by the MTT assay against two human cancer cells namely, human cervical cancer HeLa cells and human breast cancer MDA-231 cells. The results of cytotoxicity are expressed, in terms of IC50 and listed m Table 7. The survival of the cells as a function of concentration of the platinum complexes of compounds 1-7 are graphically presented in FIGS. 4A and 4B. […] Recently, the anticancer properties of some other platinum(II) complexes of heterocyclic selenones have been reported [Altoum et al J. Coord. Chem. 70 (2017) 1020-1031; and. Altoum et al. Polyhedron, 128, 2-8 (2017), 42].

[2] = test system: human breast cancer MDA-231 cells; test: MTT in vitro cytotoxicity, MDA-231; format: cell-based; conditions: for IC50: MDA-231, MTT, 72 h incubation, read-out: IC50 values against MDA-231; for cytotoxicity compared to cisplatin: MDA-231 (MDA-321 [sic]), MTT
Procedure: as §1, §2

MCF7 cell line = test: MTT in vitro cytotoxicity, cell line MCF7; format: cell-based, human
MCF7 cells = conditions: read-out: IC50, in vitro cytotoxicity against MCF7 cells, Mustafa (2015) and (2014); cited from earlier work

Compound	IC50 [1]	IC50 [2]	cytotoxicity compared to cisplatin [1]	cytotoxicity compared to cisplatin [2]	cytotoxicity compared to cisplatin (MCF7 cell line)	IC50 (MCF7 cells)
cis-(Pt(NH3)2Cl2) [Cisplatin, reference compound]	3.6 µM	6.3 µM				
CCN1CCNC1=[Se].CCN1CCNC1=[Se].N.N.O=[N+]([O-])[O-].O=[N+]([O-])[O-].[Pt+2] [Complex 4, [Pt(NH3)2(EtImSe)2](NO3)2]	2.1 µM	4.4 µM	enhanced cytotoxicity	enhanced cytotoxicity		
CC(C)N1CCNC1=[Se].CC(C)N1CCNC1=[Se].N.N.O=[N+]([O-])[O-].O=[N+]([O-])[O-].[Pt+2] [Complex 6]	3.1 µM	5.7 µM	enhanced cytotoxicity	enhanced cytotoxicity		
N.N.O=[N+]([O-])[O-].O=[N+]([O-])[O-].[Pt+2].[Se]=C1NCCN1.[Se]=C1NCCN1 [Complex 3, [Pt(NH3)2(ImSe)2](NO3)2]	3.7 µM	9.5 µM	comparable cytotoxicity		less active	
CCCN1CCNC1=[Se].CCCN1CCNC1=[Se].N.N.O=[N+]([O-])[O-].O=[N+]([O-])[O-].[Pt+2] [Complex 5, trans-[Pt(NH3)2(PrImSe)2](NO3)2]	6.9 µM	4.7 µM			greater cytotoxicity than cisplatin	
S=C1NCCCN1.S=C1NCCCN1.S=C1NCCCN1.S=C1NCCCN1.[Cl-].[Cl-].[Pt+2] [[Pt(Diaz)4]Cl2]						19.1 µM
CCN1CCNC1=S.CCN1CCNC1=S.CCN1CCNC1=S.CCN1CCNC1=S.[Cl-].[Cl-].[Pt+2] [[Pt(EtImt)4]Cl2]						11 µM
N.N.O=[N+]([O-])[O-].O=[N+]([O-])[O-].[Pt+2].[Se]=C1NCCCCN1.[Se]=C1NCCCCN1 [Complex 7, [Pt(NH3)2(DiapSe)2](NO3)2]	5.4 µM	5.3 µM				
N.N.NC(N)=[Se].NC(N)=[Se].O=[N+]([O-])[O-].O=[N+]([O-])[O-].[Pt+2] [Complex 1, [Pt(NH3)2(Seu)2](NO3)2]	3.1 µM	4.3 µM	enhanced cytotoxicity	enhanced cytotoxicity		
CNC(=[Se])NC.CNC(=[Se])NC.N.N.O=[N+]([O-])[O-].O=[N+]([O-])[O-].[Pt+2] [Complex 2, [Pt(NH3)2(Me2Seu)2](NO3)2]	2.3 µM	7.4 µM	more cytotoxic than cisplatin		less active	
